Source: US9315535B2, “Nucleoside and nucleotide having nitrogen-containing heterocycle structure” (SHIONOGI & CO., LTD., priority 2013, dated 2016)

Legend:
[1] = system: RNA complementary strand (sense strand 3′-CGC AAA AAA CGA-5′); experiment: Melting temperature (Tm) of oligonucleotide hybridized to the RNA complementary strand; format: binding
Protocol: (§1) Nitrogen stream was passed through the cell chamber of the spectrophotometer (SHIMADZU UV-1800) to prevent dew condensation, and the sample solution was gradually cooled to 5° C. and kept at 5° C. for 15 minutes before starting the measurements. The temperature was raised to 90° C. at the rate of 0.5° C./min while ultraviolet absorption spectra were measured at 260 nm at intervals of 0.5° C. Lidded cells were used to prevent concentration change due to rising temperature.
(§2) The method for determining the Tm values was a method similar to (1).
as §2

[2] = system: DNA complementary strand (sense strand 3′-CGC AAA AAA CGA-5′); experiment: Melting temperature (Tm) of oligonucleotide hybridized to the DNA complementary strand; format: binding
Protocol: as §1, §2, §2

[3] = Table 10, X = II-1 (compound I-1), 100 mM NaCl, 10 mM sodium phosphate buffer (pH 7.2), 4.0 μM each strand
[4] = Table 11, Xp = II-2 (compound IV-1), method similar to (1)
[5] = Table 12, nucleoside structure of compound VII-1 (II-3), method similar to (1)

## 5′-d(GCG TTT TTT GCT)-3′ (DNA GCGTTTTTTGCT; DNA, backbone not given here) [oligonucleotide (0), nucleoside moieties of the oligonucleotide are unmodified, used as a control, reference compound]
[1]; [3]
  Tm, RNA complementary strand: 49.3 °C
[1]; [4]
  Tm, RNA complementary strand: 49.3 °C
[1]; [5]
  Tm, RNA complementary strand: 49.7 °C
[2]; [3]
  Tm, DNA complementary strand: 53.1 °C
[2]; [4]
  Tm, DNA complementary strand: 53.1 °C
[2]; [5]
  Tm, DNA complementary strand: 54.0 °C
